From patent US9833497B2, “Human originated EGF domain proteins and use of the same” (CHENGDU SOURCEBIO LIMITED-LIABILITY COMPANY, priority 2013, dated 2017)

How the values were obtained:
Type in all cases: cell-based
Moraxella catarrhalis = assay: MIC against Gram-negative bacteria: Moraxella catarrhalis; details: 5×10^5 CFU/mL
Outline: (§1)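 Inocula prepared by growing LB cultures at 37° C to 0.5 McFarland, centrifuging at 4000×g, and resuspending in fresh medium. Final density 5×10^5 CFU/mL per well with two-fold dilutions of purified EGF domain protein; shaking incubation at 37° C.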

Aeromonas hydrophila = assay: MIC against Gram-negative bacteria: Aeromonas hydrophila; details: 5×10^5 CFU/mL
Outline: as §1

Proteus mirabilis = assay: MIC against Gram-negative bacteria: Proteus mirabilis; details: 5×10^5 CFU/mL
Outline: as §1

E. coli BL21 = assay: MIC against Gram-negative bacteria: E. coli BL21; details: 5×10^5 CFU/mL
Outline: as §1

E. coli DH5α = assay: Antibacterial activity: MIC and growth curve against E. coli DH5α in 96-well plate; details: minimal inhibitory concentration against E. coli DH5α; 96-well plate, 5×10^5 CFU/mL, 37° C., judged after 8 h
Outline: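 MIC taken as lowest protein level with no bacterial growth, tracked by A600 every 30 min during 37 °C, 175 rpm culture. Two-fold protein series 50-12.5 μg/mL final, triplicate wells, against 5×10^5 CFU/mL of LB-washed mid-log cells.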

Klebsiella pneumonia = assay: MIC against Gram-negative bacteria: Klebsiella pneumonia; details: 5×10^5 CFU/mL
Outline: as §1

Citrobacter diversus = assay: MIC against Gram-negative bacteria: Citrobacter diversus; details: 5×10^5 CFU/mL
Outline: as §1

Proteus vulgaris = assay: MIC against Gram-negative bacteria: Proteus vulgaris; details: 5×10^5 CFU/mL
Outline: as §1

Serratia marcescens = assay: MIC against Gram-negative bacteria: Serratia marcescens; details: 5×10^5 CFU/mL
Outline: as §1

Enterobacter cloacae = assay: MIC against Gram-negative bacteria: Enterobacter cloacae; details: 5×10^5 CFU/mL
Outline: as §1

Pseudomonas aeruginosa = assay: MIC against Gram-negative bacteria: Pseudomonas aeruginosa; details: 5×10^5 CFU/mL
Outline: as §1

[1] = Moraxella catarrhalis, 96-well plate, 37° C., 10 h
[2] = Aeromonas hydrophila, 96-well plate, 37° C., 10 h
[3] = Proteus mirabilis, 96-well plate, 37° C., 10 h
[4] = E. coli BL21, 96-well plate, 37° C., 10 h
[5] = Klebsiella pneumonia, 96-well plate, 37° C., 10 h
[6] = Citrobacter diversus, 96-well plate, 37° C., 10 h
[7] = Proteus vulgaris, 96-well plate, 37° C., 10 h
[8] = Serratia marcescens, 96-well plate, 37° C., 10 h
[9] = Enterobacter cloacae, 96-well plate, 37° C., 10 h
[10] = Pseudomonas aeruginosa, 96-well plate, 37° C., 10 h
[11] = Moraxella catarrhalis, 10 h cultivation at 37° C.
[12] = Aeromonas hydrophila, 10 h cultivation at 37° C.
[13] = Proteus mirabilis, 10 h cultivation at 37° C.
[14] = E. coli BL21, 10 h cultivation at 37° C.
[15] = Klebsiella pneumonia, 10 h cultivation at 37° C.
[16] = Citrobacter diversus, 10 h cultivation at 37° C.
[17] = Proteus vulgaris, 10 h cultivation at 37° C.
[18] = Serratia marcescens, 10 h cultivation at 37° C.
[19] = Enterobacter cloacae, 10 h cultivation at 37° C.
[20] = Pseudomonas aeruginosa, 10 h cultivation at 37° C.

Substance: PRT614 (CNCNLYGTMKQQSSCNPVTGQCECLPHVTGQDCGACDPGFYNLQSGQGCER; listed as Homo sapiens)
- MIC M. catarrhalis (Moraxella catarrhalis; 96-well plate, 37° C., 10 h): 12.5 µg/mL
- MIC A. hydrophila (Aeromonas hydrophila; 96-well plate, 37° C., 10 h): 12.5 µg/mL
- MIC P. mirabilis (Proteus mirabilis; 96-well plate, 37° C., 10 h): 25 µg/mL
- MIC E. coli BL21 (E. coli BL21; 96-well plate, 37° C., 10 h): 50 µg/mL
- MIC (E. coli DH5α): 50 µg/mL
- MIC K. pneumonia (Klebsiella pneumonia; 96-well plate, 37° C., 10 h): 50 µg/mL
- MIC C. diversus (Citrobacter diversus; 96-well plate, 37° C., 10 h): 25 µg/mL
- MIC P. vulgaris (Proteus vulgaris; 96-well plate, 37° C., 10 h): 12.5 µg/mL
- MIC S. marcescens (Serratia marcescens; 96-well plate, 37° C., 10 h): 25 µg/mL
- MIC E. cloacae (Enterobacter cloacae; 96-well plate, 37° C., 10 h): 12.5 µg/mL
- MIC P. aeruginosa (Pseudomonas aeruginosa; 96-well plate, 37° C., 10 h): 50 µg/mL

Substance: PRT1274 (DVDECAEGNGGCQQSCVNMMGSYECHCREGFFLSDNQ; listed as Homo sapiens)
- MIC against M. catarrhalis (Moraxella catarrhalis; [1]): 12.5 µg/mL
- MIC against A. hydrophila (Aeromonas hydrophila; [2]): 50 µg/mL
- MIC against P. mirabilis (Proteus mirabilis; [3]): 25 µg/mL
- MIC against E. coli BL21 (E. coli BL21; [4]): 50 µg/mL
- MIC (E. coli DH5α): 12.5 µg/mL
- MIC against K. pneumonia (Klebsiella pneumonia; [5]): 50 µg/mL
- MIC against C. diversus (Citrobacter diversus; [6]): 25 µg/mL
- MIC against P. vulgaris (Proteus vulgaris; [7]): 50 µg/mL
- MIC against S. marcescens (Serratia marcescens; [8]): 25 µg/mL
- MIC against E. cloacae (Enterobacter cloacae; [9]): 12.5 µg/mL
- MIC against P. aeruginosa (Pseudomonas aeruginosa; [10]): 12.5 µg/mL

Substance: PRT1222 (SVNYCECNPCFNGGSCQSGVDSYYCHCPFGVFGKHCE; listed as Homo sapiens)
- MIC against M. catarrhalis (Moraxella catarrhalis; [1]): 25 µg/mL
- MIC against A. hydrophila (Aeromonas hydrophila; [2]): 50 µg/mL
- MIC against P. mirabilis (Proteus mirabilis; [3]): 50 µg/mL
- MIC against E. coli BL21 (E. coli BL21; [4]): 25 µg/mL
- MIC (E. coli DH5α): 12.5 µg/mL
- MIC against K. pneumonia (Klebsiella pneumonia; [5]): 12.5 µg/mL
- MIC against C. diversus (Citrobacter diversus; [6]): 12.5 µg/mL
- MIC against P. vulgaris (Proteus vulgaris; [7]): 25 µg/mL
- MIC against S. marcescens (Serratia marcescens; [8]): 12.5 µg/mL
- MIC against E. cloacae (Enterobacter cloacae; [9]): 25 µg/mL
- MIC against P. aeruginosa (Pseudomonas aeruginosa; [10]): 50 µg/mL

Substance: PRT540 (CVCHGHADACDAKDPTDPFRLQCTCQHNTCGGTCDRCCPGFNQQPWKPATANSANECQS; listed as Homo sapiens)
- MIC against M. catarrhalis (Moraxella catarrhalis; 96-well plate, 37° C., 10 h): 50 µg/mL
- MIC against A. hydrophila (Aeromonas hydrophila; 96-well plate, 37° C., 10 h): 12.5 µg/mL
- MIC against P. mirabilis (Proteus mirabilis; 96-well plate, 37° C., 10 h): 25 µg/mL
- MIC against E. coli BL21 (E. coli BL21; 96-well plate, 37° C., 10 h): 50 µg/mL
- MIC (E. coli DH5α): 12.5 µg/mL
- MIC against K. pneumonia (Klebsiella pneumonia; 96-well plate, 37° C., 10 h): 12.5 µg/mL
- MIC against C. diversus (Citrobacter diversus; 96-well plate, 37° C., 10 h): 25 µg/mL
- MIC against P. vulgaris (Proteus vulgaris; 96-well plate, 37° C., 10 h): 12.5 µg/mL
- MIC against S. marcescens (Serratia marcescens; 96-well plate, 37° C., 10 h): 50 µg/mL
- MIC against E. cloacae (Enterobacter cloacae; 96-well plate, 37° C., 10 h): 50 µg/mL
- MIC against P. aeruginosa (Pseudomonas aeruginosa; 96-well plate, 37° C., 10 h): 12.5 µg/mL

Substance: PRT1461 (CNCNTSGTVDGDITCHQNSGQCKCKANVIGLRCDHCNFGFKFLRSFNDVGCEP; listed as Homo sapiens)
- MIC against M. catarrhalis (Moraxella catarrhalis; [11]): 12.5 µg/mL
- MIC against A. hydrophila (Aeromonas hydrophila; [12]): 12.5 µg/mL
- MIC against P. mirabilis (Proteus mirabilis; [13]): 25 µg/mL
- MIC against E. coli BL21 (E. coli BL21; [14]): 12.5 µg/mL
- MIC (E. coli DH5α): 25 µg/mL
- MIC against K. pneumonia (Klebsiella pneumonia; [15]): 12.5 µg/mL
- MIC against C. diversus (Citrobacter diversus; [16]): 25 µg/mL
- MIC against P. vulgaris (Proteus vulgaris; [17]): 12.5 µg/mL
- MIC against S. marcescens (Serratia marcescens; [18]): 25 µg/mL
- MIC against E. cloacae (Enterobacter cloacae; [19]): 25 µg/mL
- MIC against P. aeruginosa (Pseudomonas aeruginosa; [20]): 50 µg/mL

Substance: PRT470 (KCPQPCRNGGKCIGKSKCKCSKGYQGDLCS; listed as Homo sapiens)
- MIC against M. catarrhalis (Moraxella catarrhalis; 96-well plate, 37° C., 10 h): 25 µg/mL
- MIC against A. hydrophila (Aeromonas hydrophila; 96-well plate, 37° C., 10 h): 25 µg/mL
- MIC against P. mirabilis (Proteus mirabilis; 96-well plate, 37° C., 10 h): 50 µg/mL
- MIC against E. coli BL21 (E. coli BL21; 96-well plate, 37° C., 10 h): 12.5 µg/mL
- MIC (E. coli DH5α): 50 µg/mL
- MIC against K. pneumonia (Klebsiella pneumonia; 96-well plate, 37° C., 10 h): 12.5 µg/mL
- MIC against C. diversus (Citrobacter diversus; 96-well plate, 37° C., 10 h): 12.5 µg/mL
- MIC against P. vulgaris (Proteus vulgaris; 96-well plate, 37° C., 10 h): 12.5 µg/mL
- MIC against S. marcescens (Serratia marcescens; 96-well plate, 37° C., 10 h): 50 µg/mL
- MIC against E. cloacae (Enterobacter cloacae; 96-well plate, 37° C., 10 h): 50 µg/mL
- MIC against P. aeruginosa (Pseudomonas aeruginosa; 96-well plate, 37° C., 10 h): 50 µg/mL

Substance: PRT1387 (IMDDCSTNCNGNGECISGHCHCFPGFLGPDCA; listed as Homo sapiens)
- MIC against M. catarrhalis (Moraxella catarrhalis; [11]): 12.5 µg/mL
- MIC against A. hydrophila (Aeromonas hydrophila; [12]): 50 µg/mL
- MIC against P. mirabilis (Proteus mirabilis; [13]): 25 µg/mL
- MIC against E. coli BL21 (E. coli BL21; [14]): 12.5 µg/mL
- MIC (E. coli DH5α): 12.5 µg/mL
- MIC against K. pneumonia (Klebsiella pneumonia; [15]): 25 µg/mL
- MIC against C. diversus (Citrobacter diversus; [16]): 25 µg/mL
- MIC against P. vulgaris (Proteus vulgaris; [17]): 12.5 µg/mL
- MIC against S. marcescens (Serratia marcescens; [18]): 25 µg/mL
- MIC against E. cloacae (Enterobacter cloacae; [19]): 12.5 µg/mL
- MIC against P. aeruginosa (Pseudomonas aeruginosa; [20]): 50 µg/mL
